One data set relates to p53. Put plainly: p53 transcription activity: GFP reporter in HCT116 cells transfected with RGC-mazE-IRES-GFP plasmid. The format is cell-based, human.
The subject of data set [1] is HCT116 cells. Put plainly: Cell toxicity in transfected HCT116 cells.
In data set [2] the target is mCherry-MazF (E. coli MazF ribonuclease fused to the C terminus of the monomeric red fluorescence protein mCherry) (E. coli) (UniProt P0AE70). Put plainly: cell-based or functional assay.
The test system of data set [3] is HCT116 cells.

Chain of mCherry-MazF (E. coli MazF ribonuclease fused to the C terminus of the monomeric red fluorescence protein mCherry) (E. coli) (P0AE70 whole entry, the tested form may be a part): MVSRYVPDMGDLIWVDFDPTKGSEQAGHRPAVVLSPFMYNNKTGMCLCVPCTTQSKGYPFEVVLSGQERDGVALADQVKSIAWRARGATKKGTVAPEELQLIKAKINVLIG
Protocol for p53: In order to test the ability of p53 to bind to its responsive element and stimulate transcription, HCT116 cells were transfected with RGC-mazE-IRES-GFP plasmid. Since p53 is degraded in un-activated cells, the present inventors used Quercetin, a ubiquitous bioactive plant flavonoid that is able to induce p53 phosphorylation, stabilization and total p53 protein accumulation. Another widely used p53 inducer is the antimetabolite agent 5-FU. P53 transcription activity was evaluated by measuring the expression of the downstream reporter gene, GFP.

Regarding `O=c1c(O)c(-c2ccc(O)c(O)c2)oc2cc(O)cc(O)c12` [Quercetin], the “increase of GFP expression” value in the data set on p53 (50 μM) was “about 10 folds”. In addition, the “cell death (cell toxicity)” value with HCT116 cells [1] amounted to 60%. With “E. coli antitoxin MazE (from UniProt P0AE72 1-82)”, the yield of mCherry-MazF adenovirus in HEK293 packaging cells that constitutively express MazE, against parental HEK293 cells (orders of magnitude) in data set [2] is 2. `O=c1[nH]cc(F)c(=O)[nH]1` [5-FU]: the GFP expression levels entry with p53 (10 μM, compared with Quercetin) was “significantly higher expression levels of GFP”. Besides, in the data set on HCT116 cells [3], the cell toxicity entry was “no toxicity”.

(Values after US20190153409A1, “COMPOSITIONS COMPRISING PARTICLES AND METHODS FOR TREATING CANCER” (priority 2017, published 2019).)
